From paper PMC9440176, “Novel benzylidene benzofuranone analogues as potential anticancer agents: design, synthesis and in vitro evaluation based on CDK2 inhibition assays” (3 Biotech, 2022)

Columns and labels:
[1] = ABTS.+ radical scavenging assay
Procedure: The assay was performed in a 96-well plate by serial dilution method. A 2 mM ABTS^.+ working solution was prepared in a phosphate buffer (Zheleva-Dimitrova et al [2010]).To this, 200 μL of aqueous potassium per sulfate (70 mM) solution was added and the solution was incubated for 24 h in the dark at room temperature to develop a blue-green color. To 30 μL of ABTS^.+ working solution, 50 μL of different concentrations (3.9–1000 μM) of the test sample solution and 170 μL of phosphate buffer (pH-7.4) were added in a well. The plate was then incubated in the dark at room temperature for 10 min. Then absorbance was measured at 690 nm using Elisa reader. Quercetin and ascorbic acid were used as standards. The percentage scavenging of ABTS^.+ was calculated using the formula, (Control Absorbance–Test Absorbance)*100/(Control Absorbance) and the anti-oxidant activity was expressed in terms of IC50 value.

[2] = tested on: normal epithelial kidney cells (Vero); assay: MTT cytotoxicity assay on Vero; type: cell-based; conditions: 24 h, read-out: Inhibition of cell proliferation, IC50, Vero
Procedure: The monolayer cell culture was trypsinized and the cell count was adjusted to 5.0 × 10^5 cells/ml using respective media containing 10% FBS. To each well of the 96-well microtiter plate, 100 µL of the diluted cell suspension (50,000cells/well) was added. After 24 h, when a partial monolayer was formed, the supernatant was flicked off, the monolayer was then washed once again with the medium and 100 µL of different test concentrations of test drugs were added on to the partial monolayer in microtiter plates. The plates were then incubated at 37 °C for 24 h in 5% CO2 atmosphere. After incubation, the test solutions in the wells were discarded and 100 µL of MTT (5 mg/10 ml of MTT in PBS) was added to each well. The plates were then incubated for 4 h at 37 °C in 5% CO2 atmosphere. The supernatant was then removed and 100 µL of DMSO was added and the plates were gently shaken to solubilize the formed formazan. The absorbance was measured using a microtiter plate reader at a wavelength of 590 nm. The percentage growth inhibition was thus calculated using the following formula and the concentration of the test drug required to inhibit the cell growth by 50% (IC50) values is generated from the dose–response curves for each one of the cell lines (Meerloo et al. [2011]).
The test compounds were screened for their in vitro cytotoxicity by MTT assay against two cancer cell lines, namely MCF-7, HCT-116 and normal epithelial kidney cells (Vero). Doxorubicin was used as a reference standard.

## COc1ccc(/C=C2\Oc3c(c(OC)cc(OC)c3C3=CCN(C(C)C)CC3)C2=O)cc1OC [NISOA4]
[1]
  IC50: 127 ± 12.5 µM
[2]
  IC50: > 200 µM
